Measured values: article PMC12292862 (Biomedicines, 2025)
“Also recorded” adds a separate entry of the source. Marks after values point to notes of the source that are not given here.

Tests used:
COX-2 = assay: In vitro colorimetric COX (ovine) inhibitor-screening assay, COX-2; format: biochemical; conditions: ovine COX-2, tested at 50, 100 and 150 µg/mL
Description: The test compounds’ ability to suppress COX-1 and COX-2 was evaluated using a colorimetric COX (ovine) inhibitor-screening method (Cayman Chemical, Item Number 760111). In brief, 150 μL of assay buffer, 10 μL of heme, 10 μL of enzyme (COX-1 or COX-2), and 10 μL of compound (1 mg/mL) make up the reaction mixture. In a final volume of […], the test compounds were evaluated at doses of 50, 100, and 150 μg/mL. The cyclooxygenase peroxidase component is used in the experiment. By monitoring the appearance of oxidized N, N, […] (TMPD) at 590 nm, the peroxidase activity is measured […]. […] The following formula was used to determine the % COX inhibition: The COX inhibition activity percentage is equal to (1 − T/C ×100), where T is the inhibitor well’s absorbance and C is the starting activity’s absorbance at 100% without the inhibitor well.

[1] = system: carrageenan-induced rat paw edema; assay: Carrageenan-induced paw edema; format: in vivo; conditions: compounds 200 mg/kg i.p., indomethacin 10 mg/kg, 4 h after carrageenan
From the text: Rats’ carrageenan-induced paw edema model was used to assess the novel synthesized drugs’ anti-inflammatory properties. A total of 180–190 g of male Wistar rats were used for the experiments. In the animal house at Sohag University in Sohag, Egypt, every animal was kept in careful laboratory conditions. After being weighed and divided into six groups at random, the animals are housed for a week to reduce stress and allow them to get used to the laboratory environment. The chemicals that were synthesized were administered intraperitoneally (i.p.) to rats at a dosage of 200 mg/kg. The control group received only vehicles. […] The rats were given a 0.2 mL sub-plantar injection of a 1% (w/v) suspension of carrageenan (made in PBS) in their right hind paw thirty minutes following the injection of synthesized compounds [33]. […] The % inhibition of paw edema was calculated by the following formula [34]:%Inhibition = ((Mean edema of control group − Mean edema of test compound)/(Mean edema of control group)) × 100.

CRP = assay: Serum CRP (ELISA) in carrageenan-injected rats; format: in vivo, rat; conditions: compounds 200 mg/kg i.p., indomethacin 10 mg/kg, mean ± SD
Description: (§1) The selective pro-inflammatory cytokines were measured quantitatively using rat-specific Enzyme-Linked Immunosorbent Assay (ELISA) kits from Thermo Scientific™ (Waltham, MA, USA) with CAT. No. ERCRP for CRP; from Elabscience with Cat. No. E-EL-R2856 for TNF-α and with Cat. No. E-EL-R0011 for IL-1α; from CUSABIO, Houston, TX, USA, with Cat. No. CSB-E04640r for IL-6; and from My BioSource Co, USA, with Cat. No. MBS825017 for IL-1β, with Cat. No. MBS753621 for rat cyclooxygenase 1, and with Cat. No. MBS266603 for rat cyclooxygenase 2. Meanwhile, an ovine COX inhibitor-screening in vitro assay (item number 760111) was obtained from Cayman Chemical (Ann Arbor, MI, USA). We purchased malondialdehyde (MDA), glutathione (GSH), and superoxide dismutase (SOD) detection kits from Nanjing Jiancheng Bio-Technology Co. Ltd. (Nanjing, China).
(§2) At the end of the experiments, the rats were subjected to anesthesia with chloroform and then sacrificed. Blood was obtained via heart puncture for biochemical analysis. Following the animals’ sacrifice, the paws were taken out, decalcified, and stored in a 10% formalin solution. To prepare the tissue samples, they were sliced into thicknesses of 5 µm. Hematoxylin and eosin dyes were used to create the histology slides, which were then examined using a photomicroscope (Meiji Techno®, Iruma, Japan) for pathological alterations. The presence of inflammation was documented. Protease/phosphatase inhibitor cocktail in cold phosphate-buffered saline (1:4) (pH 7, 0.01 mol/L) (Cat. No. PPC1010, Sigma-Aldrich) was used to homogenize each rat’s paw piece in a glass homogenizer. After filtering and centrifuging the resultant homogenate for five minutes at 5000× g, oxidative stress biomarkers like GSH, SOD, and MDA were measured. The trials were repeated three times.

IL-1α = assay: Serum IL-1α (ELISA) in carrageenan-injected rats; format: in vivo, rat; conditions: compounds 200 mg/kg i.p., indomethacin 10 mg/kg, mean ± SD
Description: as §1, §2

IL-1β = assay: Serum IL-1β (ELISA) in carrageenan-injected rats; format: in vivo, rat; conditions: compounds 200 mg/kg i.p., indomethacin 10 mg/kg, mean ± SD
Description: as §1, §2

IL-6 = assay: Serum IL-6 (ELISA) in carrageenan-injected rats; format: in vivo, rat; conditions: compounds 200 mg/kg i.p., indomethacin 10 mg/kg, mean ± SD
Description: as §1, §2

TNF-α = assay: Serum TNF-α (ELISA) in carrageenan-injected rats; format: in vivo, rat; conditions: compounds 200 mg/kg i.p., indomethacin 10 mg/kg, mean ± SD
Description: as §1, §2

rat cyclooxygenase 1 = assay: COX-1 level in carrageenan-injected paw (ELISA); format: in vivo; conditions: compounds 200 mg/kg i.p., indomethacin 10 mg/kg, mean ± SD
Description: as §1, §2

rat cyclooxygenase 2 = assay: COX-2 level in carrageenan-injected paw (ELISA); format: in vivo; conditions: compounds 200 mg/kg i.p., indomethacin 10 mg/kg, mean ± SD
Description: as §1, with “Meanwhile, an ovine COX inhibitor-screening in vitro assay (item number 760111) was obtained from Cayman Chemical (Ann Arbor, MI, USA).” left out
as §2

rat paw tissue [2] = assay: Histopathological examination of paw tissue (HE); format: in vivo; conditions: carrageenan-injected paw; compounds 200 mg/kg i.p., indomethacin 10 mg/kg
From the text: as §2

[3] = system: rat paw tissue dermal collagen; assay: Sirius Red staining of dermal collagen in paw tissue; format: in vivo; conditions: carrageenan-injected paw; compounds 200 mg/kg i.p., indomethacin 10 mg/kg
rat paw tissue [4] = assay: Histomorphometry lesion scores of paw tissue sections; format: in vivo; conditions: vs carrageenan group

Structure (SMILES): COc1ccc2c(c1)c(CC(=O)O)c(C)n2C(=O)c1ccc(Cl)cc1 [indomethacin, reference compound]
- COX-2 inhibition % (mean activity) (COX-2): 97%
- inhibition of paw edema after 4 h [1]: 57.66%
- CRP (CRP): 6.23 ± 0.22 ^b ng/mL
- IL-1α (IL-1α): 79.28 ± 0.55 ^b pg/mL
- IL-1β (IL-1β): 92.86 ± 0.47 ^b pg/mL
- IL-6 (IL-6): 18.49 ± 0.27 ^b pg/mL
- TNF-α (TNF-α): 11.30 ± 0.30 ^b pg/mL
- COX-1 level (rat cyclooxygenase 1): 6.31 ± 0.08 ng/mL
- COX-2 level (rat cyclooxygenase 2): 5.11 ± 0.13 ng/mL
- histopathological findings of paw tissue (HE) (rat paw tissue [2]): marked edema
- dermal collagen content and distribution (Sirius Red) [3]: marked dispersed collagenous fibers; also recorded: markedly dispersed and less organized
- inflammation scores (rat paw tissue [4]; Figure 11A): significantly reduced inflammation scores
- vascular alteration scores (rat paw tissue [4]; Figure 11C): significantly mitigated vascular alterations
